Patent publication US9611277B2 (Janssen Pharmaceutica NV, priority 2013, dated 2017)

Experiments:
rat orexin 1 receptor = rat orexin 1 receptor (Rattus norvegicus, UniProt P56718); experiment: Rat orexin 1 receptor radioligand binding; conditions: rat orexin 1 receptor; averages of 2-20 runs; read-out: rOX1 Ki
Procedure, shortened: (§1)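 Ki values derive from one-site competition IC50s corrected with the radioligand's predetermined Kd, triplicates per run, averaged over 2-20 runs. Cell homogenates (rat or human OX1R) compete against [^3H]-thiazolyl-oxadiazolyl-pyrrolidine methanone in PBS; 10 μM almorexant sets nonspecific binding; scintillation counting after washing.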

human orexin 1 receptor = human orexin 1 receptor (Homo sapiens, UniProt O43613); experiment: Human orexin 1 receptor radioligand binding; conditions: human orexin 1 receptor; averages of 2-20 runs; read-out: hOX1 Ki
Procedure, shortened: as §1

human orexin 2 receptor = human orexin 2 receptor (Homo sapiens (Human), UniProt O43614); experiment: Human orexin 2 receptor radioligand binding; conditions: human orexin 2 receptor; averages of 2-20 runs; read-out: hOX2 Ki
Procedure, shortened: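 Ki derived from one-site competition IC50 using predetermined Kd of [3H]-EMPA, triplicate points, 2-20 runs averaged. Binding done on homogenized HEK293 cells stably expressing human orexin 2 receptor, DMSO ≤0.1%, with 10 μM almorexant defining nonspecific binding; filtered, washed, scintillation counted.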

Chain of human orexin 2 receptor (O43614 whole entry): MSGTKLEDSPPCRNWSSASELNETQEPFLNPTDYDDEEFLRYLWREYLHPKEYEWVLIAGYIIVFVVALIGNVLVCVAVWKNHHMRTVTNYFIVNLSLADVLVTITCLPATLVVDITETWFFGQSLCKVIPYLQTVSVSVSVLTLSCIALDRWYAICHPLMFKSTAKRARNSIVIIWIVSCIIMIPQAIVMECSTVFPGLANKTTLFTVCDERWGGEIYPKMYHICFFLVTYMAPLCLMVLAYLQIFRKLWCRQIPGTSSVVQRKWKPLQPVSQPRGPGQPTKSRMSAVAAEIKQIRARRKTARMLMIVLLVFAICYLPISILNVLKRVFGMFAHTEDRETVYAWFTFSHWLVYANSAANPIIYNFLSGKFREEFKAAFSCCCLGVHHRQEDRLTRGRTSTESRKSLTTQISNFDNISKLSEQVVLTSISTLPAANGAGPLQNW

`Cc1ccc(C(=O)N2C[C@H]3C[C@@H](Nc4ccc(C(F)(F)F)cn4)[C@@H]2C3)c(-n2nccn2)n1` [Example 143, (6-methyl-2-(2H-1,2,3-triazol-2-yl)pyridin-3-yl)((1S,4S,6R)-6-((5-(trifluoromethyl)pyridin-2-yl)amino)-2-azabicyclo[2.2.1]heptan-2-yl)methanone] showed a Ki (rat orexin 1 receptor) of 24 nM, a Ki (human orexin 1 receptor) of 34 nM and a Ki (human orexin 2 receptor) of 7300 nM.

Compound `O=C(c1cccc(F)c1-n1nccn1)N1C[C@H]2C[C@@H](Nc3ccc(C(F)(F)F)cn3)[C@@H]1C2` [Example 144, (3-fluoro-2-(2H-1,2,3-triazol-2-yl)phenyl)((1S,4S,6R)-6-((5-(trifluoromethyl)pyridin-2-yl)amino)-2-azabicyclo[2.2.1]heptan-2-yl)methanone] has a Ki (rat orexin 1 receptor) of 3 nM, a Ki (human orexin 1 receptor) of 3 nM and a Ki (human orexin 2 receptor) of 133 nM.

`O=C(c1ccc(F)cc1-n1nccn1)N1C[C@H]2C[C@@H](Nc3ccc(C(F)(F)F)cn3)[C@@H]1C2` [Example 145, (4-fluoro-2-(2H-1,2,3-triazol-2-yl)phenyl)((1S,4S,6R)-6-((5-(trifluoromethyl)pyridin-2-yl)amino)-2-azabicyclo[2.2.1]heptan-2-yl)methanone] gave a Ki (rat orexin 1 receptor) of 17 nM, a Ki (human orexin 1 receptor) of 7 nM and a Ki (human orexin 2 receptor) of 934 nM.

In the case of `O=C(c1c(F)cccc1-n1nccn1)N1CC2CC(Nc3ccc(C(F)(F)F)cn3)C1C2` [Example 146, (2-fluoro-6-(2H-1,2,3-triazol-2-yl)phenyl)((1S,4S,6R)-6-((5-(trifluoromethyl)pyridin-2-yl)amino)-2-azabicyclo[2.2.1]heptan-2-yl)methanone], the Ki (rat orexin 1 receptor) is reported as 6 nM, the Ki (human orexin 1 receptor) is reported as 3 nM and the Ki (human orexin 2 receptor) is reported as 150 nM.

Compound `O=C(c1c(F)cccc1-c1ncccn1)N1C[C@H]2C[C@@H](Nc3ccc(C(F)(F)F)cn3)[C@@H]1C2` [Example 147, (2-fluoro-6-(pyrimidin-2-yl)phenyl)((1S,4S,6R)-6-((5-(trifluoromethyl)pyridin-2-yl)amino)-2-azabicyclo[2.2.1]heptan-2-yl)methanone] has a Ki (rat orexin 1 receptor) of 5 nM, a Ki (human orexin 1 receptor) of 6 nM and a Ki (human orexin 2 receptor) of 190 nM.

In the case of `O=C(c1ccccc1-c1ncccn1)N1C[C@H]2C[C@@H](Nc3ccc(C(F)(F)F)cn3)[C@@H]1C2` [Example 148, (2-(pyrimidin-2-yl)phenyl)((1S,4S,6R)-6-((5-(trifluoromethyl)pyridin-2-yl)amino)-2-azabicyclo[2.2.1]heptan-2-yl)methanone], the Ki (rat orexin 1 receptor) is reported as 3 nM, the Ki (human orexin 1 receptor) is reported as 5 nM and the Ki (human orexin 2 receptor) is reported as 189 nM.

`Cc1cnc(C(=O)N2C[C@H]3C[C@@H](Nc4ccc(C(F)(F)F)cn4)[C@@H]2C3)c(-c2ncccn2)c1` [Example 149, (5-methyl-3-(pyrimidin-2-yl)pyridin-2-yl)((1S,4S,6R)-6-((5-(trifluoromethyl)pyridin-2-yl)amino)-2-azabicyclo[2.2.1]heptan-2-yl)methanone] gave a Ki (rat orexin 1 receptor) of 14 nM, a Ki (human orexin 1 receptor) of 7 nM and a Ki (human orexin 2 receptor) of 4600 nM.

In the case of `Cc1ccc(-c2ncccn2)c(C(=O)N2C[C@H]3C[C@@H](Nc4ccc(C(F)(F)F)cn4)[C@@H]2C3)n1` [Example 150, (6-methyl-3-(pyrimidin-2-yl)pyridin-2-yl)((1S,4S,6R)-6-((5-(trifluoromethyl)pyridin-2-yl)amino)-2-azabicyclo[2.2.1]heptan-2-yl)methanone], the Ki (rat orexin 1 receptor) is reported as 13 nM, the Ki (human orexin 1 receptor) is reported as 9 nM and the Ki (human orexin 2 receptor) is reported as 88 nM.

Work on `Cc1cnc(-c2ncccn2)c(C(=O)N2C[C@H]3C[C@@H](Nc4ccc(C(F)(F)F)cn4)[C@@H]2C3)c1` [Example 151, (5-methyl-2-(pyrimidin-2-yl)pyridin-3-yl)((1S,4S,6R)-6-((5-(trifluoromethyl)pyridin-2-yl)amino)-2-azabicyclo[2.2.1]heptan-2-yl)methanone] yielded a Ki (rat orexin 1 receptor) of 21 nM, a Ki (human orexin 1 receptor) of 47 nM and a Ki (human orexin 2 receptor) of 5100 nM.

For `Cc1noc(-c2cc(F)ccc2C(=O)N2C[C@H]3C[C@@H](Nc4ccc(C(F)(F)F)cn4)[C@@H]2C3)n1` [Example 152, (4-fluoro-2-(3-methyl-1,2,4-oxadiazol-5-yl)phenyl)((1S,4S,6R)-6-((5-(trifluoromethyl)pyridin-2-yl)amino)-2-azabicyclo[2.2.1]heptan-2-yl)methanone], the Ki (rat orexin 1 receptor) was 30 nM, the Ki (human orexin 1 receptor) was 16 nM and the Ki (human orexin 2 receptor) was 1600 nM.

Compound `CN(c1ccc(C(F)(F)F)cn1)[C@@H]1C[C@H]2C[C@@H]1N(C(=O)c1ccccc1-n1nccn1)C2` [Example 153, (2-(2H-1,2,3-triazol-2-yl)phenyl)((1S,4S,6R)-6-(methyl(5-(trifluoromethyl)pyridin-2-yl)amino)-2-azabicyclo[2.2.1]heptan-2-yl)methanone] has a Ki (rat orexin 1 receptor) of 3 nM, a Ki (human orexin 1 receptor) of 3 nM and a Ki (human orexin 2 receptor) of 342 nM.

Compound `CN(c1ccc(C(F)(F)F)cn1)[C@@H]1C[C@H]2C[C@@H]1N(C(=O)c1cccc(F)c1-n1nccn1)C2` [Example 154, (3-fluoro-2-(2H-1,2,3-triazol-2-yl)phenyl)((1S,4S,6R)-6-(methyl(5-(trifluoromethyl)pyridin-2-yl)amino)-2-azabicyclo[2.2.1]heptan-2-yl)methanone] has a Ki (rat orexin 1 receptor) of 4 nM, a Ki (human orexin 1 receptor) of 6 nM and a Ki (human orexin 2 receptor) of 329 nM.

In the case of `CN(c1ccc(C(F)(F)F)cn1)[C@@H]1C[C@H]2C[C@@H]1N(C(=O)c1cc(F)ccc1-n1nccn1)C2` [Example 155, (5-fluoro-2-(2H-1,2,3-triazol-2-yl)phenyl)((1S,4S,6R)-6-(methyl(5-(trifluoromethyl)pyridin-2-yl)amino)-2-azabicyclo[2.2.1]heptan-2-yl)methanone], the Ki (rat orexin 1 receptor) is reported as 5 nM, the Ki (human orexin 1 receptor) is reported as 3 nM and the Ki (human orexin 2 receptor) is reported as 303 nM.

Work on `Cc1ccc(-n2nccn2)c(C(=O)N2C[C@H]3C[C@@H](N(C)c4ccc(C(F)(F)F)cn4)[C@@H]2C3)n1` [Example 156, ((1S,4S,6R)-6-(methyl(5-(trifluoromethyl)pyridin-2-yl)amino)-2-azabicyclo[2.2.1]heptan-2-yl)(6-methyl-3-(2H-1,2,3-triazol-2-yl)pyridin-2-yl)methanone] yielded a Ki (rat orexin 1 receptor) of 7 nM, a Ki (human orexin 1 receptor) of 5 nM and a Ki (human orexin 2 receptor) of 274 nM.

In the case of `CN(c1ccc(C(F)(F)F)cn1)[C@@H]1C[C@H]2C[C@@H]1N(C(=O)c1cc(F)ccc1-c1ncccn1)C2` [Example 158, (5-fluoro-2-(pyrimidin-2-yl)phenyl)((1S,4S,6R)-6-(methyl(5-(trifluoromethyl)pyridin-2-yl)amino)-2-azabicyclo[2.2.1]heptan-2-yl)methanone], the Ki (rat orexin 1 receptor) is reported as 5 nM, the Ki (human orexin 1 receptor) is reported as 2 nM and the Ki (human orexin 2 receptor) is reported as 340 nM.

In the case of `CN(c1ccc(C(F)(F)F)cn1)[C@@H]1C[C@H]2C[C@@H]1N(C(=O)c1c(F)cccc1-c1ncccn1)C2` [Example 159, (2-fluoro-6-(pyrimidin-2-yl)phenyl)((1S,4S,6R)-6-(methyl(5-(trifluoromethyl)pyridin-2-yl)amino)-2-azabicyclo[2.2.1]heptan-2-yl)methanone], the Ki (rat orexin 1 receptor) is reported as 6 nM, the Ki (human orexin 1 receptor) is reported as 4 nM and the Ki (human orexin 2 receptor) is reported as 209 nM.

`CCN(c1ccc(C(F)(F)F)cn1)C1CC2CC1N(C(=O)c1cccc(F)c1-c1ncccn1)C2` (stereo not drawn) [Example 160] gave a Ki (rat orexin 1 receptor) of 9 nM, a Ki (human orexin 1 receptor) of 6 nM and a Ki (human orexin 2 receptor) of 208 nM.

`O=C(c1cccc(F)c1-c1ncccn1)N1C[C@H]2C[C@@H](N(CC3CC3)c3ccc(C(F)(F)F)cn3)[C@@H]1C2` [Example 161, ((1S,4S,6R)-6-((cyclopropylmethyl)(5-(trifluoromethyl)pyridin-2-yl)amino)-2-azabicyclo[2.2.1]heptan-2-yl)(3-fluoro-2-(pyrimidin-2-yl)phenyl)methanone] gave a Ki (rat orexin 1 receptor) of 14 nM, a Ki (human orexin 1 receptor) of 5 nM and a Ki (human orexin 2 receptor) of 384 nM.

`COCCN(c1ccc(C(F)(F)F)cn1)[C@@H]1C[C@H]2C[C@@H]1N(C(=O)c1cccc(F)c1-c1ncccn1)C2` [Example 163, (3-fluoro-2-(pyrimidin-2-yl)phenyl)((1S,4S,6R)-6-((2-methoxyethyl)(5-(trifluoromethyl)pyridin-2-yl)amino)-2-azabicyclo[2.2.1]heptan-2-yl)methanone] gave a Ki (rat orexin 1 receptor) of 19 nM, a Ki (human orexin 1 receptor) of 12 nM and a Ki (human orexin 2 receptor) of 962 nM.

With `O=C(c1ccccc1-n1nccn1)N1C[C@H]2C[C@@H](Nc3ccc(Br)cn3)[C@@H]1C2` [Example 166, (2-(2H-1,2,3-triazol-2-yl)phenyl)((1S,4S,6R)-6-((5-bromopyridin-2-yl)amino)-2-azabicyclo[2.2.1]heptan-2-yl)methanone] the Ki (rat orexin 1 receptor) was 2 nM, the Ki (human orexin 1 receptor) was 4 nM and the Ki (human orexin 2 receptor) was 236 nM.

Work on `O=C(c1cccc(F)c1-c1ncccn1)N1C[C@H]2C[C@@H](Nc3ccc(Br)cn3)[C@@H]1C2` [Example 167, ((1S,4S,6R)-6-((5-bromopyridin-2-yl)amino)-2-azabicyclo[2.2.1]heptan-2-yl)(3-fluoro-2-(pyrimidin-2-yl)phenyl)methanone] yielded a Ki (rat orexin 1 receptor) of 2 nM, a Ki (human orexin 1 receptor) of 6 nM and a Ki (human orexin 2 receptor) of 239 nM.

`O=C(c1c(F)cccc1-c1ncccn1)N1C[C@H]2C[C@@H](Nc3ccc(Br)cn3)[C@@H]1C2` [Example 168, ((1S,4S,6R)-6-((5-bromopyridin-2-yl)amino)-2-azabicyclo[2.2.1]heptan-2-yl)(2-fluoro-6-(pyrimidin-2-yl)phenyl)methanone] gave a Ki (rat orexin 1 receptor) of 2 nM, a Ki (human orexin 1 receptor) of 4 nM and a Ki (human orexin 2 receptor) of 351 nM.

Work on `O=C(c1ccccc1-n1nccn1)N1C[C@H]2C[C@@H](Nc3ccc(Cl)cn3)[C@@H]1C2` [Example 169, (2-(2H-1,2,3-triazol-2-yl)phenyl)((1S,4S,6R)-6-((5-chloropyridin-2-yl)amino)-2-azabicyclo[2.2.1]heptan-2-yl)methanone] yielded a Ki (rat orexin 1 receptor) of 3 nM, a Ki (human orexin 1 receptor) of 4 nM and a Ki (human orexin 2 receptor) of 285 nM.

For `O=C(c1cccc(F)c1-c1ncccn1)N1C[C@H]2C[C@@H](Nc3ccc(Cl)cn3)[C@@H]1C2` [Example 170, ((1S,4S,6R)-6-((5-chloropyridin-2-yl)amino)-2-azabicyclo[2.2.1]heptan-2-yl)(3-fluoro-2-(pyrimidin-2-yl)phenyl)methanone], the Ki (rat orexin 1 receptor) was 4 nM, the Ki (human orexin 1 receptor) was 12 nM and the Ki (human orexin 2 receptor) was 321 nM.
